# In the supplement of paper PMC9013687:
# ± gives the standard deviation of the averaged measurements.
# Key:
# Danio rerio embryo [1] = system: Danio rerio embryo
# Protocol: (§1)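 Zebrafish embryos (UFZ-OBI strain) were exposed from 2 hpf for 48 h (2 dpf) or 96 h (4 dpf) at 28 °C; spontaneous tail coiling was scored at 25 hpf. Morphological features from automated image analysis (FishInspector), heart rate and locomotor response were fitted with drc models. Quantal endpoints were dichotomised at 2.5 SD from controls and fitted with a log-logistic model; heart rate, pigmentation and STC were normalised to the replicate control mean. Betamethasone was tested as betamethasone dipropionate, diflorasone as diflorasone diacetate.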
# Danio rerio embryo [2] = assay: EC20 Any effect; higher = less potent
# Protocol: as §1
# Danio rerio embryo [3] = assay: EC20 Body length_Decrease; higher = less potent
# Protocol: as §1
# Danio rerio embryo [4] = assay: EC10 LMR ligth decrease; higher = less potent; settings: exposure time: 4 dpf
# Protocol: as §1
# Danio rerio embryo [5] = assay: EC20 LMR dark; higher = less potent; settings: exposure time: 4 dpf
# Protocol: as §1
# Danio rerio embryo [6] = assay: EC20 Lack of SB; higher = less potent; settings: exposure time: 4 dpf
# Protocol: as §1
# Danio rerio embryo [7] = assay: EC50 Curvature_Increase
# Protocol: as §1
# Danio rerio embryo [8] = system: Danio rerio embryo; remark: listed apart in the source
# Protocol: as §1
# Danio rerio embryo [9] = assay: EC10 Curvature_Increase; higher = less potent
# Protocol: as §1
# Danio rerio embryo [10] = assay: EC20 STC bell shape; higher = less potent; settings: exposure time: 25 h
# Protocol: as §1
# Danio rerio embryo [11] = assay: EC20 LMR ligth decrease; higher = less potent; settings: exposure time: 4 dpf
# Protocol: as §1
# Danio rerio embryo [12] = assay: EC20 Eye size_Decrease; higher = less potent
# Protocol: as §1
# Danio rerio embryo [13] = assay: EC20 Pigmentation decrease; higher = less potent
# Protocol: as §1
# Danio rerio embryo [14] = assay: EC50 Bladder size_Decrease; settings: exposure time: 4 dpf
# Protocol: as §1
# Danio rerio embryo [15] = assay: EC10 Otolith-eye distance_Decrease; higher = less potent; settings: exposure time: 4 dpf
# Protocol: as §1
# Danio rerio embryo [16] = assay: EC20 Eye-jaw distance_Decrease; higher = less potent; settings: exposure time: 4 dpf
# Protocol: as §1
# Danio rerio embryo [17] = assay: EC20 Pericard size_Increase; higher = less potent; settings: exposure time: 4 dpf
# Protocol: as §1
# Danio rerio embryo [18] = assay: EC10 LMR dark; higher = less potent; settings: exposure time: 4 dpf
# Protocol: as §1
# Danio rerio embryo [19] = assay: EC50 Eye-jaw distance_Decrease; settings: exposure time: 4 dpf
# Protocol: as §1
# Danio rerio embryo [20] = settings: exposure time: 4 dpf
# Protocol: as §1
# Danio rerio embryo [21] = assay: EC20 Bladder size_Decrease; higher = less potent; settings: exposure time: 4 dpf
# Protocol: as §1
# Danio rerio embryo [22] = assay: EC10 Lack of SB; higher = less potent; settings: exposure time: 4 dpf
# Protocol: as §1
# Danio rerio embryo [23] = assay: EC10 Eye-jaw distance_Decrease; higher = less potent; settings: exposure time: 4 dpf
# Protocol: as §1
# Danio rerio embryo [24] = assay: EC20 Curvature_Increase; higher = less potent
# Protocol: as §1
# Danio rerio embryo [25] = assay: EC10 Pericard size_Increase; higher = less potent; settings: exposure time: 4 dpf
# Protocol: as §1
# Danio rerio embryo [26] = assay: EC10 Bladder size_Decrease; higher = less potent; settings: exposure time: 4 dpf
# Protocol: as §1
# Danio rerio embryo [27] = assay: EC10 Eye size_Decrease; higher = less potent
# Protocol: as §1
# Danio rerio embryo [28] = assay: EC10 Any effect; higher = less potent
# Protocol: as §1
# Danio rerio embryo [29] = assay: EC20 Otolith-eye distance_Decrease; higher = less potent; settings: exposure time: 4 dpf
# Protocol: as §1
# Danio rerio embryo [30] = assay: EC50 Pericard size_Increase; settings: exposure time: 4 dpf
# Protocol: as §1
# Danio rerio embryo [31] = assay: EC10 Body length_Decrease; higher = less potent
# Protocol: as §1
# Danio rerio embryo [32] = assay: EC10 STC bell shape; higher = less potent; settings: exposure time: 25 h
# Protocol: as §1
# Danio rerio embryo [33] = assay: EC50 Otolith-eye distance_Decrease; settings: exposure time: 4 dpf
# Protocol: as §1
# Danio rerio embryo [34] = assay: EC10 Pigmentation decrease; higher = less potent
# Protocol: as §1
# Danio rerio embryo [35] = settings: exposure time: 4 dpf; remark: listed apart in the source
# Protocol: as §1
# Danio rerio embryo [36] = assay: EC50 Body length_Decrease
# Protocol: as §1
# Danio rerio embryo [37] = assay: EC50 Eye size_Decrease
# Protocol: as §1
# Danio rerio embryo [38] = assay: EC20 Yolk sac size_Decrease; higher = less potent; settings: exposure time: 4 dpf
# Protocol: as §1
# Danio rerio embryo [39] = assay: EC10 Yolk sac size_Decrease; higher = less potent; settings: exposure time: 4 dpf
# Protocol: as §1
# Danio rerio embryo [40] = assay: spontaneous tail coiling frequency (coils/min/embryo); higher = more spontaneous movement; settings: 25 hpf
# Protocol: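 Spontaneous tail coilings of zebrafish embryos exposed from 2 hpf were recorded at 24-25 hpf in 1-min videos and detected by a KNIME workflow from grey-value variance. Betamethasone was tested as the dipropionate, diflorasone as the diacetate.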
# Danio rerio embryo [41] = assay: EC50 Yolk sac size_Decrease; settings: exposure time: 4 dpf
# Protocol: as §1
compound,measurement,setting,value
CC(=O)Nc1ccc(O)cc1 [Acetaminophen],EC50 Pigmentation decrease,Danio rerio embryo [1]; exposure time: 2 dpf,1.58 mM
same,EC50 Pigmentation decrease,Danio rerio embryo [1]; exposure time: 4 dpf,16.3 mM
same,EC20 Any effect,Danio rerio embryo [2]; exposure time: 2 dpf,2.05 mM
same,EC20 Any effect,Danio rerio embryo [2]; exposure time: 4 dpf,1.15 mM
same,EC20 Body length Decrease,Danio rerio embryo [3]; exposure time: 2 dpf,3.5 mM
same,EC20 Body length Decrease,Danio rerio embryo [3]; exposure time: 4 dpf,3.17 mM
same,EC10 LMR ligth decrease,Danio rerio embryo [4],0.467 mM
same,EC20 LMR dark,Danio rerio embryo [5],0.5 mM
same,EC20 Lack of SB,Danio rerio embryo [6],1.2 mM
same,EC50 Curvature Increase,Danio rerio embryo [7]; exposure time: 2 dpf,3.76 mM
same,EC50 Curvature Increase,Danio rerio embryo [7]; exposure time: 4 dpf,3.83 mM
same,EC50 Any effect,Danio rerio embryo [8]; exposure time: 2 dpf,2.69 mM
same,EC50 Any effect,Danio rerio embryo [8]; exposure time: 4 dpf,1.71 mM
same,EC50 LMR ligth decrease,Danio rerio embryo [8]; exposure time: 4 dpf,0.821 mM
same,EC50 STC bell shape,Danio rerio embryo [8]; exposure time: 25 h,8.11 mM
same,EC10 Curvature Increase,Danio rerio embryo [9]; exposure time: 2 dpf,2.1 mM
same,EC10 Curvature Increase,Danio rerio embryo [9]; exposure time: 4 dpf,3.13 mM
same,EC20 STC bell shape,Danio rerio embryo [10],6.32 mM
same,EC20 LMR ligth decrease,Danio rerio embryo [11],0.57 mM
same,EC20 Eye size Decrease,Danio rerio embryo [12]; exposure time: 2 dpf,2.3 mM
same,EC20 Eye size Decrease,Danio rerio embryo [12]; exposure time: 4 dpf,1.74 mM
same,EC20 Pigmentation decrease,Danio rerio embryo [13]; exposure time: 2 dpf,1.18 mM
same,EC20 Pigmentation decrease,Danio rerio embryo [13]; exposure time: 4 dpf,2.73 mM
same,EC50 Bladder size Decrease,Danio rerio embryo [14],1.42 mM
same,EC10 Otolith-eye distance Decrease,Danio rerio embryo [15],1.78 mM
same,EC20 Eye-jaw distance Decrease,Danio rerio embryo [16],2.41 mM
same,EC20 Pericard size Increase,Danio rerio embryo [17],2.5 mM
same,EC10 LMR dark,Danio rerio embryo [18],0.337 mM
same,EC50 Eye-jaw distance Decrease,Danio rerio embryo [19],2.83 mM
same,EC50 LMR dark,Danio rerio embryo [20],0.897 mM
same,EC20 Bladder size Decrease,Danio rerio embryo [21],1.15 mM
same,EC10 Lack of SB,Danio rerio embryo [22],1.08 mM
same,EC10 Eye-jaw distance Decrease,Danio rerio embryo [23],2.19 mM
same,EC20 Curvature Increase,Danio rerio embryo [24]; exposure time: 2 dpf,2.6 mM
same,EC20 Curvature Increase,Danio rerio embryo [24]; exposure time: 4 dpf,3.37 mM
same,EC10 Pericard size Increase,Danio rerio embryo [25],2.25 mM
same,EC10 Bladder size Decrease,Danio rerio embryo [26],1.02 mM
same,EC10 Eye size Decrease,Danio rerio embryo [27]; exposure time: 2 dpf,1.98 mM
same,EC10 Eye size Decrease,Danio rerio embryo [27]; exposure time: 4 dpf,1.67 mM
same,EC10 Any effect,Danio rerio embryo [28]; exposure time: 2 dpf,1.74 mM
same,EC10 Any effect,Danio rerio embryo [28]; exposure time: 4 dpf,0.915 mM
same,EC20 Otolith-eye distance Decrease,Danio rerio embryo [29],2.08 mM
same,EC50 Pericard size Increase,Danio rerio embryo [30],3.01 mM
same,EC10 Body length Decrease,Danio rerio embryo [31]; exposure time: 2 dpf,3.23 mM
same,EC10 Body length Decrease,Danio rerio embryo [31]; exposure time: 4 dpf,2.79 mM
same,EC10 STC bell shape,Danio rerio embryo [32],5.59 mM
same,EC50 Otolith-eye distance Decrease,Danio rerio embryo [33],2.72 mM
same,EC10 Pigmentation decrease,Danio rerio embryo [34]; exposure time: 2 dpf,1.01 mM
same,EC10 Pigmentation decrease,Danio rerio embryo [34]; exposure time: 4 dpf,2.39 mM
same,EC50 Lack of SB,Danio rerio embryo [35],1.44 mM
same,EC50 Body length Decrease,Danio rerio embryo [36]; exposure time: 2 dpf,3.99 mM
same,EC50 Body length Decrease,Danio rerio embryo [36]; exposure time: 4 dpf,3.94 mM
same,EC50 Eye size Decrease,Danio rerio embryo [37]; exposure time: 2 dpf,2.96 mM
same,EC50 Eye size Decrease,Danio rerio embryo [37]; exposure time: 4 dpf,1.85 mM
C[C@@H]1C[C@H]2[C@@H]3CCC4=CC(=O)C=C[C@]4(C)[C@@]3(F)[C@@H](O)C[C@]2(C)[C@@]1(O)C(=O)CO [Dexamethasone],EC20 Any effect,Danio rerio embryo [2]; exposure time: 4 dpf,0.00745 mM
same,EC20 Lack of SB,Danio rerio embryo [6],0.0027 mM
same,EC50 Any effect,Danio rerio embryo [8]; exposure time: 4 dpf,0.113 mM
same,EC50 Bladder size Decrease,Danio rerio embryo [14],0.0143 mM
same,EC20 Yolk sac size Decrease,Danio rerio embryo [38],0.0131 mM
same,EC10 Yolk sac size Decrease,Danio rerio embryo [39],0.00227 mM
same,EC20 Pericard size Increase,Danio rerio embryo [17],0.0228 mM
same,spontaneous tail coiling frequency,Danio rerio embryo [40]; 2.5 µM,2.19 ± 1.4
same,spontaneous tail coiling frequency,Danio rerio embryo [40]; 25.5 µM,3.02 ± 0.14
same,spontaneous tail coiling frequency,Danio rerio embryo [40]; 63.7 µM,2.67 ± 0.078
same,spontaneous tail coiling frequency,Danio rerio embryo [40]; 127.4 µM,3.04 ± 0.58
same,spontaneous tail coiling frequency,Danio rerio embryo [40]; 254.8 µM,2.79 ± 1.5
same,EC20 Bladder size Decrease,Danio rerio embryo [21],0.0027 mM
same,EC10 Lack of SB,Danio rerio embryo [22],0.000944 mM
same,EC10 Pericard size Increase,Danio rerio embryo [25],0.00595 mM
same,EC10 Bladder size Decrease,Danio rerio embryo [26],0.00102 mM
same,EC50 Yolk sac size Decrease,Danio rerio embryo [41],0.259 mM
same,EC10 Any effect,Danio rerio embryo [28]; exposure time: 4 dpf,0.00152 mM
same,EC50 Pericard size Increase,Danio rerio embryo [30],0.226 mM
same,EC50 Lack of SB,Danio rerio embryo [35],0.0162 mM
